Reference: PubChem BioAssay (NCI)
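Where inhibition never reached the appropriate level, the endpoint shown equals the highest concentration tested. Otherwise, values were interpolated linearly from a five-concentration, 48-hour dose response in 96-well plates. Definition used: TGI = concentration required for complete inhibition of growth.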

Tests used:
Test in all cases: DTP human tumour cell line panel, 48 h
[1] = test system: SK-MEL-28 melanoma
[2] = test system: IGROV1 ovarian
[3] = test system: UO-31 renal
[4] = test system: RXF 393 renal
[5] = test system: HOP-92 NSCLC
[6] = test system: NCI-H522 lung
[7] = test system: A549 NSCLC
[8] = test system: NCI-H226 lung
[9] = test system: U251 CNS
[10] = test system: MOLT-4 leukemia
[11] = test system: SNB-19 CNS
[12] = test system: HOP-62 NSCLC
[13] = test system: OVCAR-5 ovarian
[14] = test system: NCI-H460 lung
[15] = test system: TK-10 renal
[16] = test system: M14 melanoma
[17] = test system: EKVX NSCLC
[18] = test system: DMS 273 small cell lung
[19] = test system: SNB-78 CNS
[20] = test system: K-562 leukemia
[21] = test system: A498 renal
[22] = test system: UACC-62 melanoma
[23] = test system: HT29 colon
[24] = test system: CCRF-CEM leukemia
[25] = test system: SR leukemia
[26] = test system: KM12 colon
[27] = test system: HL-60(TB) leukemia
[28] = test system: SK-OV-3 ovarian
[29] = test system: NCI-H23 lung
[30] = test system: SF-268 CNS
[31] = test system: HCC-2998 colon
[32] = test system: ACHN renal
[33] = test system: OVCAR-8 ovarian
[34] = test system: HCT-15 colon
[35] = test system: BT-549 breast
[36] = test system: SK-MEL-2 melanoma
[37] = test system: 786-0 renal
[38] = test system: SNB-75 CNS
[39] = test system: HCT-116 colon
[40] = test system: SF-295 CNS
[41] = test system: SF-539 CNS
[42] = test system: COLO 205 colon
[43] = test system: PC-3 prostate
[44] = test system: RPMI-8226 leukemia
[45] = test system: MALME-3M melanoma
[46] = test system: MDA-MB-231 breast
[47] = test system: T-47D breast
[48] = test system: MDA-MB-435
[49] = test system: DU-145 prostate
[50] = test system: MCF7 breast
[51] = test system: OVCAR-3 ovarian
[52] = test system: HS 578T breast
[53] = test system: SK-MEL-5 melanoma
[54] = test system: MDA-N
[55] = test system: NCI/ADR-RES ovarian
[56] = test system: OVCAR-4 ovarian
[57] = test system: CAKI-1 renal
[58] = test system: SN12C renal
[59] = test system: SW-620 colon

COC(=O)CN1CCSC1=NC#N
TGI [1]: > 100 µM
TGI [2]: > 100 µM
TGI [3]: > 100 µM
TGI [4]: > 100 µM
TGI [5]: > 100 µM
TGI [6]: > 100 µM
TGI [7]: > 100 µM
TGI [8]: > 100 µM
TGI [9]: > 100 µM
TGI [10]: > 100 µM
TGI [11]: > 100 µM
TGI [12]: > 100 µM
TGI [13]: > 100 µM
TGI [14]: > 100 µM
TGI [15]: > 100 µM
TGI [16]: > 100 µM
TGI [17]: > 100 µM
TGI [18]: > 100 µM
TGI [19]: > 100 µM
TGI [20]: > 100 µM
TGI [21]: > 100 µM
TGI [22]: > 100 µM
TGI [23]: > 100 µM
TGI [24]: > 100 µM
TGI [25]: > 100 µM
TGI [26]: > 100 µM
TGI [27]: > 100 µM
TGI [28]: > 100 µM
TGI [29]: > 100 µM
TGI [30]: > 100 µM

c1ccc(/C(=N/Nc2ccccn2)c2ncccn2)cc1
TGI [1]: > 78.1 µM
TGI [2]: > 21 µM
TGI [3]: 6.27 µM
TGI [31]: > 100 µM
TGI [32]: 13.3 µM
TGI [33]: 3.43 µM
TGI [34]: > 100 µM
TGI [35]: > 100 µM
TGI [4]: > 100 µM
TGI [36]: > 100 µM
TGI [5]: > 34.5 µM
TGI [37]: > 100 µM
TGI [38]: 16.2 µM
TGI [39]: > 100 µM
TGI [6]: 0.679 µM
TGI [7]: > 76.9 µM
TGI [8]: 0.956 µM
TGI [9]: > 51.6 µM
TGI [40]: > 44.6 µM
TGI [11]: > 100 µM
TGI [41]: 46 µM
TGI [42]: > 71.2 µM
TGI [43]: > 100 µM
TGI [12]: > 42.7 µM
TGI [44]: > 62.9 µM
TGI [13]: > 100 µM
TGI [45]: 59.8 µM
TGI [14]: > 57.8 µM
TGI [46]: > 100 µM
TGI [47]: > 100 µM
TGI [16]: 6.93 µM
TGI [17]: 5.73 µM
TGI [48]: > 100 µM
TGI [49]: > 100 µM
TGI [50]: > 100 µM
TGI [20]: > 39.8 µM
TGI [51]: > 44.3 µM
TGI [52]: > 44.9 µM
TGI [53]: 26.9 µM
TGI [54]: > 100 µM
TGI [55]: 4.67 µM
TGI [56]: > 100 µM
TGI [57]: 5.69 µM
TGI [21]: > 100 µM
TGI [22]: 12.2 µM
TGI [23]: > 47.4 µM
TGI [24]: > 100 µM
TGI [25]: > 27.5 µM
TGI [26]: > 53.8 µM
TGI [27]: > 100 µM
TGI [58]: > 100 µM
TGI [59]: > 20.2 µM
TGI [28]: > 28.7 µM
TGI [29]: > 37.6 µM
TGI [30]: 5.06 µM
